Experimental data: patent EP3693740A1, “IMPROVED DITHIOCARMABATE BASED COMPOUNDS, THERAPIES AND DIAGNOSTICS” (Deutsches Krebsforschungszentrum, Stiftung des öffentlichen …, priority 2019, dated 2020)

Columns and labels:
[1] = tested on: roGFP2-Orp1; assay: Oxidation of the genetically encoded H2O2 probe roGFP2-Orp1 (cytoplasmic and mitochondrial); assay type: cell-based; conditions: for reversibility of probe oxidation: concentrations below the EC50 of DKFZ-608
[2] = tested on: peroxides (most likely H2O2); assay: Peroxide quantification with ROS Glo probe (boronate-caged luciferin precursor); assay type: cell-based
Excerpt: Gold(I) complexes have been previously reported to induce pro-oxidative effects in tumour cells.

[3] = target: truncated form of TRXR1, lacking the Sec (TRXR1ΔSec) (Homo sapiens, UniProt Q16881)
Chain of truncated form of TRXR1, lacking the Sec (TRXR1ΔSec) (Q16881 151-647 limits assumed, stated change not applied): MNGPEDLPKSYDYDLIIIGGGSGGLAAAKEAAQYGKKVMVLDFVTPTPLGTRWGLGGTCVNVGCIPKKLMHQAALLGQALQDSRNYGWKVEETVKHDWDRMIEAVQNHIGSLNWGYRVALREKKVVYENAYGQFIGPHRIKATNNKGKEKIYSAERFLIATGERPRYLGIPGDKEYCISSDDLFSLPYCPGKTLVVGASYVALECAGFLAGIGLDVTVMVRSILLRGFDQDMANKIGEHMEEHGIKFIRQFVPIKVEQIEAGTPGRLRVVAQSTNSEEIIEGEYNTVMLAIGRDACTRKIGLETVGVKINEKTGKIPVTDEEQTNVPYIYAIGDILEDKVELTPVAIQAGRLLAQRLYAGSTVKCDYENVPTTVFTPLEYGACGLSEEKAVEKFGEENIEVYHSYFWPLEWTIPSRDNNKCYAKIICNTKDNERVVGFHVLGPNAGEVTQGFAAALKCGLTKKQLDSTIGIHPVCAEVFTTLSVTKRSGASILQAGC
Excerpt: The present invention will now be further described in the following examples with reference to the accompanying figures and sequences, nevertheless, without being limited thereto. For the purposes of the present invention, all references as cited herein are incorporated by reference in their entireties.

[4] = target: T1, TRXR1 (Homo sapiens, UniProt Q16881); conditions: inhibitors pre-incubated with TRXR1 before addition of TRX1
T1 sequence (Q16881 151-649 limits assumed): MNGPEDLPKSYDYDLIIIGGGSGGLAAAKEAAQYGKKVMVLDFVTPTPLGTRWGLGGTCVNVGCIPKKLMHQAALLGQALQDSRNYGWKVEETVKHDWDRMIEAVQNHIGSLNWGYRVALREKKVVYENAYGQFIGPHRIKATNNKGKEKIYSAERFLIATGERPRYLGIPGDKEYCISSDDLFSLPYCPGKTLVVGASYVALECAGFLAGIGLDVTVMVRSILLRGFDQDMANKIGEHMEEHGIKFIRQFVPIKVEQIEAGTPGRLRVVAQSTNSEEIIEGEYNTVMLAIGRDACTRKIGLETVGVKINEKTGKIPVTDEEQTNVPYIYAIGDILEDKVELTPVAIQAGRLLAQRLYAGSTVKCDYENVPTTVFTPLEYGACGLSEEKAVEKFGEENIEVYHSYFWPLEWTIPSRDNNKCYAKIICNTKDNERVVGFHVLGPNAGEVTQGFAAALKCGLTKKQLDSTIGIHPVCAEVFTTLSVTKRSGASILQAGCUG
Excerpt: The mode of inhibition was further characterized by investigating the effect of substrate competition.

[5] = target: T1, TRXR1
[6] = target: T1, TRXR1; remark: listed apart in the source
[7] = tested on: SCLC cell line H209; assay: Induction of apoptotic cell death; assay type: cell-based
Excerpt: Treatment with DKFZ-608 caused morphological changes of the nucleus reminiscent of apoptosis (Figure 1A). […] The inventors then investigated the possible involvement of apoptotic mechanisms in the SCLC cell line H209. […] It was also investigated whether alternative cell death mechanisms like ferroptosis, necroptosis or entosis contribute to the cytotoxicity of DKFZ-608 on SCLC. Inhibitors of those cell death programs were, however, not able to desensitize SCLC cells.

[8] = tested on: SCLC; assay: SCLC animal model, residual tumour cells after first line therapy; assay type: in vivo
Excerpt: In context of the herein disclosed invention it was discovered, that thioredoxin reductase 1 (TRXR1), when inhibited competitively, is a promising drug target for SCLC. DKFZ-608, a homoleptic dithiocarbamate gold complex, reversibly binds TRXR1 in competition with the TRXR1 substrate thioredoxin-1 (TRX1). Consequently, cells expressing low levels of TRX1, like SCLC, are hypersensitive to DKFZ-608, while cells, which express higher levels of TRX1, are resistant. DKFZ-608 causes oxidative stress in the cytoplasm, but not in mitochondria, further contributing to its low toxicity profile.

[9] = target: T1, TRXR1; remark: listed apart in the source

Compound	reversibility of probe oxidation [1]	oxidation of the mitochondrial roGFP2-Orp1 probe [1]	increase of peroxides [2]	inhibition of TRXR1ΔSec [3]	effect of increasing amounts of TRX1 on enzyme inhibition [4]	enzymatic activity after dilution of a sample containing TRXR1 and a high concentration of inhibitor [5]	effect of DTNB substrate increase on dose response curve [6]	cytotoxic effect in presence of pan-Caspase inhibitor ([7]; H209)	Annexin-V positive cells and late apoptotic cells ([7]; data not shown)	tumour recurrence [8]	TRXR1 inhibition in cells ([9]; H209 versus A549, TRXR1 inhibition after 100min)	dose response curves upon induced overexpression of TRX1 ([9]; SCLC line H69)
CC[P+](CC)(CC)[Au-][S][C@@H]1O[C@H](COC(C)=O)[C@@H](OC(C)=O)[C@H](OC(C)=O)[C@H]1OC(C)=O [auranofin, reference compound]	remains stable	produces the same fast and pronounced increase in probe oxidation as in the cytoplasm	induced fast and strong increase of peroxides	able to repress the activity of the truncated enzyme, although to a lesser extent	an effect not observed	this was not the case	showed no affect with increasing DTNB concentrations	–	–	–	–	–
CCN(CC)C1=[S+][Au-][S]C(N(CC)CC)=[S+][Au-][S]1 [DKFZ-608]	appears to be reversible	did not cause oxidation of the mitochondrial probe	induced fast and strong increase of peroxides	not inhibited	increasing amounts of TRX1 reduced enzyme inhibition	resulted in recovery of enzymatic activity	right-shift of the dose response curve	could be reverted by the pan-Caspase inhibitor z-VAD-FMK	increases the amount of Annexin-V positive cells and late apoptotic cells	completely prevents tumour recurrence	more potent inhibition of TRXR1 in the SCLC line H209 as compared to the NSCLC line A549	rightshift of the dose response curves of cytotoxicity and TRXR1 inhibition
